How the values were obtained:
rat striatal slices [1] = assay: Rat striatal slices exposed to 6-OHDA: cell death and ROS production; type: cell-based; details: compound 10 µM, 6-OHDA 100 µM, 4 h
Description: (§1) Three- to four-month-old Sprague–Dawley rats were decapitated, the brain was removed, and the two brain hemispheres were separated. Each hemisphere was then cut into 300-µm coronal slices using a McIlwain Tissue Chopper (Cavey Laboratory Engineering, Surrey, UK) and separated in a previously oxygenated (95% O2 and 5% CO2) ice-cold Krebs’s dissection buffer (120 mM of NaCl; 2 mM of KCl; 26 mM of NaHCO3; 1.18 mM of KH2PO4; 10 mM of MgSO4; 0.5 mM of CaCl2; 11 mM of glucose; and 200 mM sucrose at pH 7.4) using a Leica SE6 microscope (Leica, Madrid, Spain). Striatum-containing slices were selected and immediately incubated for stabilization in dissection buffer without sucrose, bubbled with 95% O2 and 5% CO2 for 45 min at 34 °C, allowing slices to recover from slicing injury. […] Finally, cell death and the ROS production were measured.
(§2) ROS quantification was performed using the fluorescent probe 2,7′-dichlorodihydrofluorescein diacetate (H2DCFDA, λEx/Em = 495/529 nm; Thermo Fisher, Madrid, Spain). Cell death quantification was performed using the fluorescent probe propidium iodide (PI, λEx/Em = 535/617 nm; Thermo Fisher, Madrid, Spain). […] Fluorescence from striatum slices was then recorded for H2DCFDA (λEx/Em = 495/529 nm), PI (λEx/Em = 535/617 nm), and Hoechst (λEx/Em = 350/461 nm), in an inverted Nikon Eclipse T2000-U microscope (Nikon, Tokyo, Japan). […]

rat striatal slices [2] = assay: Rat striatal slices exposed to rotenone: ROS production; type: cell-based; details: compound 10 µM, rotenone 10 µM, 4 h
Description: as §1, §2

C#CCN(CC#C)CCc1c[nH]c2ccc(OC(=O)C=Cc3ccccc3)cc12 [Compound 14, 3-(2-(Di(prop-2-yn-1-yl)amino)ethyl)-1H-indol-5-yl Cinnamate]
ROS production (H2DCFDA), 6-OHDA model (rat striatal slices [1]): significantly decreased ROS production
cell death (propidium iodide), 6-OHDA model (rat striatal slices [1]): significant reduction in cell death
ROS levels (H2DCFDA), rotenone model (rat striatal slices [2]): reduced

— paper PMC8868346, “Novel Series of Dual NRF2 Inducers and Selective MAO-B Inhibitors for the Treatment of Parkinson’s Disease” (Antioxidants, 2022)
